Laboratory results published in PMC9030827, “In Vitro Effects of Mitochondria-Targeted Antioxidants in a Small-Cell Carcinoma of the Ovary of Hypercalcemic Type and in Type 1 and Type 2 Endometrial Cancer” (Biomedicines, 2022).
“Also recorded” adds a separate entry of the source. Like-named read-outs stand apart in the source and are kept apart here.

Assays:
HFF-1 cells = assay: Neutral red (NR) cell viability assay; assay type: cell-based; conditions: Homo sapiens
Procedure: Experiments were performed using the following cell lines: Ishikawa, Hec50co, COV434, and HFF-1. The Ishikawa cell line (RRID: CVCL_2529) was established from an endometrial adenocarcinoma. The Hec50co cell line (RRID: CVCL_4Y59) consists of poorly differentiated endometrial tumor cells isolated from a patient with advanced disease. Both the Ishikawa and Hec50co cell lines were kindly provided by Dr. Kim K. Leslie (The University of New Mexico Health Sciences Center, Albuquerque, NM, USA). COV434 (RRID: CVCL_2010) were initially isolated from a patient diagnosed with a granulosa cell tumor but were recently classified as cells from a small-cell carcinoma of the ovary, hypercalcemic type.The COV434 cells were purchased from the European Collection of Authenticated Cell Cultures (ECACC) (#07071909). HFF-1 (RRID: CVCL_3285) is an immortalized human foreskin fibroblasts cell line, obtained from the American Type Culture Collection (ATCC), which was used as control, as they are non-tumorous cells. The Ishikawa and Hec50co cells were maintained in Dulbecco’s Modified Eagle Medium/F12 (DMEM/F12) supplemented with 5% Foetal Bovine Serum (FBS). COV434 cells were maintained in DMEM/F12 supplemented with 10% FBS. HFF-1 were maintained in Roswell Park Memorial Institute 1640 (RPMI 1640) supplemented with 10% FBS. All mediums were supplemented with 1% AB-AM and all cells were kept at 37 °C with 5% CO2. The treatment with the compounds was done in the respective cell medium supplemented with 2% FBS and 24 h after platting the cells in the culture medium with 5% FBS to allow their adherence.
The Ishikawa, Hec50co, COV434, and HFF-1 cell lines were plated at a density of 5 × 10^4 cells/well in transparent 96-well plates. After 24 h, the cells were treated with Mito6_TPP, Mito6_picol., or Mito6_isoq. (0.01–100 μM) and incubated at 37 °C with 5% CO2 for 24, 48, or 72 h. […] The conditions of the methylthiazolyldiphenyl-tetrazolium bromide (MTT) assay were adapted from the work of Banerjee et al.. Briefly, MTT was added to a final concentration of 0.5 mg/mL, and the cells were incubated for 3 h at 37 °C with 5% CO2. After the 3 h, purple MTT formazan crystals were dissolved by agitation for 15 min in a solution of DMSO/isopropanol (ratio 3:1) and quantified spectrophotometrically at 540 nm. The neutral red (NR) assay conditions were based on the work developed by Repetto et al.. Briefly, after the incubation time, cells were incubated with NR at 40 μg/mL in an FBS-free cell medium for 3 h. The cells were then incubated with a solution of 50% ethanol (96% v/v), 49% deionized water, and 1% glacial acetic acid, with shaking for 15 min. The NR extracted from the cells was measured at 540 nm. The LDH cytotoxicity assay was not performed on the HFF-1 cells due to the lack of evidence of cell death at the concentrations tested. After the incubation time, this assay was performed using a Thermo Scientific Pierce LDH Cytotoxicity Assay Kit according to the manufacturer’s instructions. For all assays, the absorbance was read using a BioTek Synergy HTX Multi-Mode Microplate Reader equipped with BioTek Gen5 Data Collection and Analysis Software (BioTek Instruments, Winooski, VT, USA).
Data were evaluated using the one- or two-way analysis of variance (ANOVA) test followed by Bonferroni’s test for multiple comparisons. The data presented was expressed as mean ± SEM (Standard Error of the Mean) of a minimum of three and a maximum of seven independent experiments performed in triplicate. Values of p < 0.05 were considered statistically significant. Half of the maximal effective concentration (EC50) values were estimated by interpolation of dose-response curves and reported as a mean with a 95% confidence interval (CI 95%). All statistical analysis was performed using GraphPad Prism Software 8.0 (GraphPad Software, Inc., San Diego, CA, USA). […]

COV434 cells [1] = assay: Cell morphology by Giemsa staining; assay type: cell-based, human; conditions: COV434, 72 h; 5 μM Mito6_TPP, 20 μM Mito6_picol., 10 μM Mito6_isoq.
Procedure: (§1) Morphological changes in all cell lines were evaluated by phase-contrast microscopy (Eclipse TS100 Inverted Microscope, Nikon, Tokyo, Japan) and Giemsa staining. […] The cells were plated in 24-well plates with coverslips using the densities of 1 × 10^5 cells/well in Ishikawa and Hec50co and 2.5 × 10^5 cells/well in COV434 and HFF-1. After adherence, the cells were treated with Mito6_TPP (5 μM), Mito6_picol. (20 μM), or Mito6_isoq. (10 μM) and incubated at 37 °C with 5% CO2 for 72 h. For Giemsa staining, the cells were fixated with paraformaldehyde 4% in Phosphate Buffered Saline (PBS) for 15 min, stained with Giemsa solution for 30 min, mounted with DPX, and observed through bright field microscopy. For Höechst staining, the cells were incubated with 0.5 μg/mL Höechst 33342 in PBS for 20 min in the dark, mounted in Fluoroshield, and observed under a fluorescence microscope equipped with an excitation filter with maximum transmission at 360/400 nm. In both stainings, the cells were observed using the microscope Eclipse CI (Nikon, Japan) and the images were processed with Nikon NIS Elements Image Software (Nikon, Japan).

Ishikawa cells [2] = assay: Cell morphology by Giemsa staining; assay type: cell-based, human; conditions: 72 h, 5 μM Mito6_TPP, 20 μM Mito6_picol., 10 μM Mito6_isoq.
Procedure: as §1

COV434 cells [3] = assay: Mitochondrial membrane potential (Δψm) assessment, DiOC6 probe; assay type: cell-based, human; conditions: COV434, 48 h; 5 μM Mito6_TPP, 20 μM Mito6_picol., 10 μM Mito6_isoq.
Procedure: (§2) The Ishikawa, Hec50co, COV434, and HFF-1 cell lines were plated at a density of 5 × 10^4 cells/well in black 96-well plates. After 24 h, the cells were treated with Mito6_TPP (5 μM), Mito6_picol. (20 μM), or Mito6_isoq. (10 μM) and incubated at 37 °C with 5% CO2 for 48 h. The Δψm study was adapted from the work of Sivandzade et al.. The mitochondrial membrane-depolarizing agent carbonyl cyanide m-chlorophenylhydrazone (CCCP) (50 μM) was used as the positive control, being added to the cells for 20 min prior to the addition of the probe DiOC6 (100 nM) for 30 min at 37 °C in the dark. The fluorescence was then measured using a BioTek Synergy HTX Multi-Mode Microplate Fluorimeter equipped with BioTek Gen5 Data Collection and Analysis Software (BioTek Instruments, Winooski, VT, USA) (excitation: 488 nm; emission: 525 nm).

Hec50co cells = assay: as above; assay type: cell-based, human; conditions: 48 h, 5 μM Mito6_TPP, 20 μM Mito6_picol., 10 μM Mito6_isoq.
Procedure: as §2

Ishikawa cells [4] = assay: as above; assay type: cell-based, human; conditions: 48 h, 5 μM Mito6_TPP, 20 μM Mito6_picol., 10 μM Mito6_isoq.
Procedure: as §2

[5] = HFF-1, 48 h of incubation, read-out: EC50 (decrease of viability), NR Assay

Compound: O=C(/C=C/c1ccc(O)c(O)c1)NCCCCCCCCCC[P+](c1ccccc1)(c1ccccc1)c1ccccc1 [Mito6_TPP]
- EC50 (HFF-1 cells; HFF-1, 24 h, read-out: EC50 (decrease of viability), NR assay): 73.6 µM
- EC50 (HFF-1 cells; HFF-1, 48 h, read-out: EC50 (decrease of viability), NR Assay): 57 µM
- EC50 (HFF-1 cells; HFF-1, 72 h, read-out: EC50 (decrease of viability), NR assay): 45.1 µM
- Cell morphology changes (Giemsa staining) (COV434 cells [1]): altered cell shapes and indications of chromatin condensation
- Cell morphology changes (Giemsa staining) (Ishikawa cells [2]): altered cell shapes and indications of chromatin condensation
- Mitochondrial membrane potential (Δψm) change vs untreated cells (COV434 cells [3]): significant decrease
- Mitochondrial membrane potential (Δψm) change vs untreated cells (Hec50co cells): significant decrease
- Mitochondrial membrane potential (Δψm) change vs untreated cells (Ishikawa cells [4]): significant decrease

Compound: O=C(/C=C/c1ccc(O)c(O)c1)NCCCCCCCCCC[n+]1ccc2ccccc2c1 [Mito6_isoq.]
- EC50 (HFF-1 cells; HFF-1, 24 hours of incubation, read-out: EC50 (decrease of viability), NR assay): > 100 µM
- EC50 (HFF-1 cells; [5]): 97 µM
- EC50 (HFF-1 cells; HFF-1, 72 hours of incubation, read-out: EC50 (decrease of viability), NR assay): 68.6 µM
- Cell morphology changes (Giemsa staining) (COV434 cells [1]): cell shape alterations; also recorded: indications of chromatin condensation
- Cell morphology changes (Giemsa staining) (Ishikawa cells [2]): cell shape alterations
- Mitochondrial membrane potential (Δψm) change vs untreated cells (COV434 cells [3]): significant decrease
- Mitochondrial membrane potential (Δψm) change vs untreated cells (Hec50co cells): significant decrease
- Mitochondrial membrane potential (Δψm) change vs untreated cells (Ishikawa cells [4]): significant decrease

Compound: Cc1cc[n+](CCCCCCCCCCNC(=O)/C=C/c2ccc(O)c(O)c2)cc1 [Mito6_picol.]
- EC50 (HFF-1 cells; [5]): > 100 µM
- Cell morphology changes (Giemsa staining) (COV434 cells [1]): did not induce any morphological changes
- Cell morphology changes (Giemsa staining) (Ishikawa cells [2]): did not induce any morphological changes
- Mitochondrial membrane potential (Δψm) change vs untreated cells (COV434 cells [3]): decrease
- Mitochondrial membrane potential (Δψm) change vs untreated cells (Hec50co cells): decrease only in the Ishikawa and COV434 cells
- Mitochondrial membrane potential (Δψm) change vs untreated cells (Ishikawa cells [4]): decrease
